Literature values as cited in patent publication US7098239B2, “Dipeptidyl peptidase inhibitors for the treatment of diabetes” (Merck & Co., Inc, priority 2001, dated 2006).

How the values were obtained:
[1] = test system: hematopoiesis; conditions: mouse model of cyclophosphamide-induced neutropenia
[2] = biological target: T1, DP-IV (Homo sapiens, UniProt P27487)
T1 construct: GRF is rapidly degraded in plasma to GRF[3–44]

[3] = test system: cardiac allograft; conditions: rats; survival doubled from day 7 to day 14

T1 sequence (P27487 39-766 limits assumed): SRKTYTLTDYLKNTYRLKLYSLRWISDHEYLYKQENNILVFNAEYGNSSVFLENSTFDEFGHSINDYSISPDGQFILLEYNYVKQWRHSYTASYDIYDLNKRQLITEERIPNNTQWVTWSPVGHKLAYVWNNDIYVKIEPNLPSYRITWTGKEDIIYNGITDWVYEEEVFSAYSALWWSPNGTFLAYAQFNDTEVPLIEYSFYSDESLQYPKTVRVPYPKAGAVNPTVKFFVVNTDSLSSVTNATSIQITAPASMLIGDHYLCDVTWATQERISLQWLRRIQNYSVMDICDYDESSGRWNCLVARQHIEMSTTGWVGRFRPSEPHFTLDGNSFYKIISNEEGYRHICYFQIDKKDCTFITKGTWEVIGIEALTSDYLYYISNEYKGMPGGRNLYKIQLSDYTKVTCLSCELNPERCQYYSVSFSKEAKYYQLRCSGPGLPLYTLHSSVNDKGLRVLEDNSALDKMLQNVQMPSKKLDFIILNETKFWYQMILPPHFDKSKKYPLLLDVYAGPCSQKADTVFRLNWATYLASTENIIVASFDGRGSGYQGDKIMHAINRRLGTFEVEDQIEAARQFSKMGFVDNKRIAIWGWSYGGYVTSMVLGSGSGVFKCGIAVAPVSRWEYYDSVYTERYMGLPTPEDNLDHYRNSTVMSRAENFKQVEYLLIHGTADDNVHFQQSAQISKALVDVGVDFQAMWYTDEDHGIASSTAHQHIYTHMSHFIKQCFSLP

CC(C)[C@H](N)C(=O)N1CCC[C@H]1B(O)O [Val-Boro-Pro]
hematopoiesis [1]: stimulates hematopoiesis

diprotin A
degradation of GRF in plasma to GRF[3-44] [2]: prevented

CC(C)N1CCC(c2ccccc2)(c2ccccc2)CC1 [Prodipine, Pro-Pro-diphenyl-phosphonate]
cardiac allograft survival [3]: 14 day
